Experimental data taken from patent publication US11878072B2, “Compositions and methods utilizing poly(vinyl alcohol) and/or other polymers that aid particle transport in mucus” (priority 2012, dated 2024).

From the text: An aqueous dispersion containing pyrene and one of the stabilizers/surface-altering agents listed above was stirred with milling media until particle size was reduced below 500 nm (as measured by dynamic light scattering).

| Sample (relative) <Vmean>rel (relative sample velocity) | Sample <Vmean> (ensemble-average velocity) [um/s] | Substance |
| --- | --- | --- |
| 0.17 | 0.94 | Tween 80 |
| −0.02 | 0.42 | Tyloxapol |
